Assay results: US10695296B2, “Formulations, methods, kit, and dosage forms for improved stability of an active pharmaceutical ingredient” (Asana BioSciences, LLC, priority 2017, dated 2020)
Read-outs that look alike come from different tables or passages of the source.

Assay: PK characteristics in humans (plasma, LC/MS/MS)
Format: in vivo, human
Conditions: for Cmax / half-life / Tmax / AUC(0-t): human, plasma; for Cmax: read-out: Cmax; for Tmax: read-out: Tmax
Description: A pharmaceutical formulation of the disclosure comprising the active ingredient N-(3-(2-(6-amino-4-(trifluoromethyl)pyridin-3-yl)-4-morpholinopyrido[3,2-d]pyrimidin-6-yl)-2-fluorophenyl)-3-fluoropropane-1-sulfonamide was evaluated for safety/tolerability and preliminary efficacy in eligible human subjects with advanced solid tumors, and the pharmacokinetic (PK) profile of the active ingredient was investigated for each subject. Eligibility criteria for inclusion in this study included:
Fifteen eligible patients were enrolled in total daily dose levels ranging from 10-800 mg per day of the active ingredient, provided as 10-mg, 20-mg, 80-mg and 120-mg tablets for oral administration. Dose escalation is ongoing. All study medication supplies were provided by Asana BioSciences, LLC (Bridgewater, N.J.). The tablets were administered orally every 12-24 hours on an empty stomach (either 1 hour before or 2 hours after a meal or snack) with approximately 240 mL of water. On study days in which there was a single plasma PK sample taken, the subject was instructed to fast for at least 2 hours prior to collection of the PK sample. On study days with multiple plasma PK samples taken, the subject was instructed to fast overnight (at least 8 hours prior to study drug administration) and remain fasting for 2 hours after study drug administration. The date and time of the dose(s) taken prior to or on PK sampling days were collected by the study site or catalogued via a diary card provided to the subject.
An ultra performance liquid chromatographic method was used for the determination of the active ingredient in human EDTA K2 plasma. This method was validated over an analytical range of 0.5 to 500 ng/mL. Calibration standards (CS) and quality control (QC) samples at three or four levels of concentrations were prepared fresh from the appropriate working solutions which were stored at −20° C. The human EDTA K2 plasma used for the preparation of CS and QC samples was obtained from Bioreclamation (Westbury, Pa., USA) and analyzed to determine possible interference with the analyte or the internal standard, and no significant interference was observed. The following parameters were used to determine analyte levels in the plasma samples: […]

[1] = oral, 40 mg, Day 15, 40 mg, n=2, mean
[2] = oral, 40 mg, steady state, 40 QD mg, n=2, mean, cancer patients
[3] = oral, 80 mg, Day 1, 80 mg, n=2, mean
[4] = oral, 80 mg, Day 15, 80 mg, n=2, mean
[5] = oral, 80 mg, steady state, 80 QD mg, n=2, mean, cancer patients
[6] = oral, 240 mg, Day 1, 240 mg, n=2, mean
[7] = oral, 240 mg, Day 15, 240 mg, n=2, mean
[8] = oral, 240 mg, steady state, 240 QD mg, n=2, mean, cancer patients
[9] = oral, 400 mg, Day 1, 400 bid mg, individual subjects
[10] = oral, 400 mg, Day 1, 400 bid mg, mean
[11] = oral, 400 mg, Day 15, 400 QD mg, n=2, mean
[12] = oral, 400 mg, Day 15, 400 bid mg, n=1
[13] = oral, 400 mg, steady state, 400 BID mg, n=1, cancer patients
[14] = oral, 400 mg, steady state, 400 QD mg, n=2, mean, cancer patients

## Nc1cc(C(F)(F)F)c(-c2nc(N3CCOCC3)c3nc(-c4cccc(NS(=O)(=O)CCCF)c4F)ccc3n2)cn1 [CMPD A, N-(3-(2-(6-amino-4-(trifluoromethyl)pyridin-3-yl)-4-morpholinopyrido[3,2-d]pyrimidin-6-yl)-2-fluorophenyl)-3-fluoropropane-1-sulfonamide]
[1]
  Cmax: 348 ng/mL
  Tmax: 4 h
oral, 40 mg, Day 15, 40 mg, n=2, mean, read-out: T1/2 (converted)
  half-life: 35.1 h
oral, 40 mg, steady state, 40 QD mg, n=2, mean, cancer patients, read-out: AUC0-24h
  AUC(0-t): 5890 ng·h/mL
[2]
  Cmax: 348 ng/mL
  Tmax: 4 h
oral, 80 mg, Day 1, 80 mg, individual subject (other NC), read-out: T1/2 (converted)
  half-life: 22.4 h
oral, 80 mg, Day 1, 80 mg, individual subjects
  Cmax: 470 ng/mL
oral, 80 mg, Day 1, 80 mg, n=2, mean, read-out: AUC0-24
  AUC(0-t): 6050 ng·h/mL
[3]
  Cmax: 384 ng/mL
  Tmax: 14 h
oral, 80 mg, Day 15, 80 mg, individual subject (other NC), read-out: T1/2 (converted)
  half-life: 48.7 h
oral, 80 mg, Day 15, 80 mg, individual subjects, read-out: AUC0-24
  AUC(0-t): 19000 ng·h/mL
oral, 80 mg, Day 15, 80 mg, individual subjects
  Cmax: 931 ng/mL
oral, 80 mg, Day 15, 80 mg, n=2, mean, read-out: AUC0-24
  AUC(0-t): 20100 ng·h/mL
[4]
  Cmax: 1060 ng/mL
  Tmax: 14 h
oral, 80 mg, steady state, 80 QD mg, n=2, mean, cancer patients, read-out: AUC0-24h
  AUC(0-t): 20100 ng·h/mL
[5]
  Cmax: 1060 ng/mL
  Tmax: 14 h
oral, 120 mg, Day 1, 120 mg, n=3, mean, read-out: AUC0-24
  AUC(0-t): 6660 ng·h/mL
oral, 120 mg, Day 1, 120 mg, n=3, mean
  Cmax: 509 ng/mL
oral, 120 mg, Day 1, 120 mg, n=3, mean, read-out: T1/2 (converted)
  half-life: 24.9 h
oral, 120 mg, Day 1, 120 mg, n=3
  Tmax: 4 h
oral, 120 mg, Day 15, 120 mg, n=3, mean, read-out: AUC0-24
  AUC(0-t): 10100 ng·h/mL
oral, 120 mg, Day 15, 120 mg, n=3, mean
  Cmax: 728 ng/mL
oral, 120 mg, Day 15, 120 mg, n=3, mean, read-out: T1/2 (converted)
  half-life: 24.1 h
oral, 120 mg, Day 15, 120 mg, n=3
  Tmax: 4 h
oral, 120 mg, steady state, 120 QD mg, n=3, cancer patients
  Tmax: 4 h
oral, 120 mg, steady state, 120 QD mg, n=3, mean, cancer patients, read-out: AUC0-24h
  AUC(0-t): 10100 ng·h/mL
oral, 120 mg, steady state, 120 QD mg, n=3, mean, cancer patients
  Cmax: 728 ng/mL
oral, 240 mg, Day 1, 240 mg, n=2, mean, read-out: AUC0-24
  AUC(0-t): 6930 ng·h/mL
[6]
  Cmax: 520 ng/mL
  Tmax: 5 h
oral, 240 mg, Day 1, 240 mg, n=2, mean, read-out: T1/2 (converted)
  half-life: 17.5 h
oral, 240 mg, Day 15, 240 mg, individual subjects
  Tmax: 2 h
oral, 240 mg, Day 15, 240 mg, n=2, mean, read-out: AUC0-24
  AUC(0-t): 14900 ng·h/mL
[7]
  Cmax: 954 ng/mL
  Tmax: 2 h
oral, 240 mg, Day 15, 240 mg, n=2, mean, read-out: T1/2 (converted)
  half-life: 19.7 h
oral, 240 mg, steady state, 240 QD mg, n=2, mean, cancer patients, read-out: AUC0-24h
  AUC(0-t): 14900 ng·h/mL
[8]
  Cmax: 954 ng/mL
  Tmax: 2 h
oral, 400 mg, Day 1, 400 QD mg, individual subjects, read-out: T1/2 (converted)
  half-life: 15.2 h
oral, 400 mg, Day 1, 400 QD mg, n=2, mean, read-out: AUC0-24
  AUC(0-t): 15000 ng·h/mL
oral, 400 mg, Day 1, 400 QD mg, n=2, mean
  Cmax: 1070 ng/mL
oral, 400 mg, Day 1, 400 QD mg, n=2, mean, read-out: T1/2 (converted)
  half-life: 15.4 h
oral, 400 mg, Day 1, 400 QD mg, n=2
  Tmax: 2 h
oral, 400 mg, Day 1, 400 bid mg, individual subjects, read-out: AUC0-24
  AUC(0-t): 32100 ng·h/mL
[9]
  Cmax: 2330 ng/mL
  Tmax: 8 h
oral, 400 mg, Day 1, 400 bid mg, individual subjects, read-out: T1/2 (converted)
  half-life: 22.5 h
oral, 400 mg, Day 1, 400 bid mg, mean, read-out: AUC0-24
  AUC(0-t): 26300 ng·h/mL
[10]
  Cmax: 1880 ng/mL
  Tmax: 6 h
oral, 400 mg, Day 1, 400 bid mg, mean, read-out: T1/2 (converted)
  half-life: 18.6 h
oral, 400 mg, Day 15, 400 QD mg, individual subjects, read-out: AUC0-24
  AUC(0-t): 25500 ng·h/mL
oral, 400 mg, Day 15, 400 QD mg, individual subjects
  Cmax: 2770 ng/mL
oral, 400 mg, Day 15, 400 QD mg, individual subjects, read-out: T1/2 (converted)
  half-life: 10.1 h
oral, 400 mg, Day 15, 400 QD mg, n=2, mean, read-out: AUC0-24
  AUC(0-t): 33400 ng·h/mL
[11]
  Cmax: 2850 ng/mL
  Tmax: 4.5 h
oral, 400 mg, Day 15, 400 QD mg, n=2, mean, read-out: T1/2 (converted)
  half-life: 10.9 h
oral, 400 mg, Day 15, 400 bid mg, n=1, read-out: AUC0-24
  AUC(0-t): 110000 ng·h/mL
[12]
  Cmax: 5900 ng/mL
  Tmax: 2 h
oral, 400 mg, steady state, 400 BID mg, n=1, cancer patients, read-out: AUC0-24h
  AUC(0-t): 110000 ng·h/mL
[13]
  Cmax: 5990 ng/mL
  Tmax: 2 h
oral, 400 mg, steady state, 400 QD mg, n=2, mean, cancer patients, read-out: AUC0-24h
  AUC(0-t): 33400 ng·h/mL
[14]
  Cmax: 2850 ng/mL
  Tmax: 4.5 h
po, human subjects, oral tablets, read-out: Effective t½ (converted)
  half-life: ~24 h
po, human subjects, oral tablets, read-out: t1/2 (rate of elimination)
  half-life: 10 to 25 h
Steady state, 10 QD mg, n=1, cancer patients
  Cmin: 16.0 ng/mL
Steady state, 20 QD mg, n=1, cancer patients
  Cmin: 76.4 ng/mL
Steady state, 40 QD mg, n=2, mean, cancer patients
  Cmin: 167 ng/mL
Steady state, 80 QD mg, n=2, mean, cancer patients
  Cmin: 614 ng/mL
Steady state, 120 QD mg, n=3, mean, cancer patients
  Cmin: 239 ng/mL
Steady state, 240 QD mg, n=2, mean, cancer patients
  Cmin: 463 ng/mL
Steady state, 400 BID mg, n=1, cancer patients
  Cmin: 3718 ng/mL
Steady state, 400 QD mg, n=2, mean, cancer patients
  Cmin: 589 ng/mL
